Measured values reported in PubChem BioAssay (NCI).
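Test compounds were applied to cells in 96-well plates for 48 hours at 5 doses. The concentration for 50% growth inhibition is given as GI50. Definition used: TGI = concentration required for complete inhibition of growth.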

Columns and labels:
Test in all cases: DTP human tumour cell line panel, 48 h
[1] = tested on: 786-0 renal
[2] = tested on: A498 renal
[3] = tested on: A549 NSCLC
[4] = tested on: ACHN renal
[5] = tested on: BT-549 breast
[6] = tested on: CAKI-1 renal
[7] = tested on: CCRF-CEM leukemia
[8] = tested on: COLO 205 colon
[9] = tested on: DU-145 prostate
[10] = tested on: HCC-2998 colon
[11] = tested on: HCT-116 colon
[12] = tested on: HCT-15 colon
[13] = tested on: HL-60(TB) leukemia
[14] = tested on: HOP-62 NSCLC
[15] = tested on: HOP-92 NSCLC
[16] = tested on: HS 578T breast
[17] = tested on: HT29 colon
[18] = tested on: IGROV1 ovarian
[19] = tested on: K-562 leukemia
[20] = tested on: KM12 colon
[21] = tested on: LOX IMVI melanoma
[22] = tested on: M14 melanoma
[23] = tested on: MALME-3M melanoma
[24] = tested on: MCF7 breast
[25] = tested on: MDA-MB-231 breast
[26] = tested on: MDA-MB-435
[27] = tested on: MOLT-4 leukemia
[28] = tested on: NCI-H23 lung

## Cc1ccc2c(c1)O/C(=C\c1ccc([N+](=O)[O-])o1)C2=O
[1]
  GI50: 2150 nM
  TGI: 4720 nM
[2]
  GI50: 3770 nM
  TGI: 18600 nM
[3]
  GI50: 2740 nM
  TGI: 8530 nM
[4]
  GI50: 1190 nM
  TGI: 2530 nM
[5]
  GI50: 1820 nM
  TGI: 3470 nM
[6]
  GI50: 1410 nM
  TGI: 2940 nM
[7]
  GI50: 424 nM
  TGI: 2610 nM
[8]
  GI50: 1430 nM
  TGI: 3280 nM
[9]
  GI50: 2250 nM
  TGI: 6400 nM
[10]
  GI50: 2050 nM
  TGI: 4490 nM
[11]
  GI50: 373 nM
  TGI: 1320 nM
[12]
  GI50: 393 nM
  TGI: 1540 nM
[13]
  GI50: 1920 nM
  TGI: 5090 nM
[14]
  GI50: 2270 nM
  TGI: 6480 nM
[15]
  GI50: 1140 nM
  TGI: 2760 nM
[16]
  GI50: 2090 nM
  TGI: 6250 nM
[17]
  GI50: 659 nM
  TGI: 2080 nM
[18]
  GI50: 1420 nM
  TGI: 4690 nM
[19]
  GI50: 388 nM
  TGI: 2040 nM
[20]
  GI50: 1700 nM
  TGI: 3400 nM
[21]
  GI50: 1470 nM
  TGI: 3100 nM
[22]
  GI50: 1750 nM
  TGI: 4070 nM
[23]
  GI50: 2420 nM
  TGI: 4600 nM
[24]
  GI50: 432 nM
  TGI: 2010 nM
[25]
  GI50: 1360 nM
  TGI: 3270 nM
[26]
  GI50: 1870 nM
  TGI: 4420 nM
[27]
  GI50: 2350 nM
  TGI: 7520 nM
[28]
  GI50: 1940 nM
